Measurements as given in US12552790B2, “Positive modulators of the muscarinic acetylcholine receptor M4” (Vanderbilt University, priority 2023, dated 2026).

Tested on: amphetamine-induced hyperlocomotion in male Sprague-Dawley rats
Experiment: Amphetamine-induced hyperlocomotion in rats
Assay type: in vivo
Conditions: 10 mg/kg oral gavage, rat, amphetamine 0.75 mg/kg s.c.
Description: Drugs: d-Amphetamine hemisulfate was obtained from Sigma (St. Louis, MO). Salt-correction was used to determine the correct amount of the d-amphetamine hemisulfate form in milligrams to add to sterile water in order to yield a 0.75 mg/mL solution, which would be dosed at 1 mL/kg body weight of each animal. […] The solutions were formulated so that animals were injected with a volume equal to 10 mL/kg body weight for all compounds. The appropriate amount according to the dosage was mixed in 10% Tween 80 (Sigma) in sterile water. The mixtures were then vortexed and stored in a 39° C. sonication bath for 1 hour, until in a solution or microsuspension (depending on dose).
Animals: Male Sprague-Dawley rats weighing 239-300 grams and averaging 265 g (Harlan, Inc., Indianapolis, IN) were used. They were housed in the animal care facility certified by the American Association for the Accreditation of Laboratory Animal Care (AALAC) under a 12-hour light/dark cycle (lights on: 6 a.m.; lights off: 6 p.m.) and had free access to food and water. The animals used in this experiment were food-deprived the evening before experimentation for oral dosing of compound/vehicle. The experimental protocols performed during the light cycle were approved by the Institutional Animals Care and Use Committee of Vanderbilt University and conformed to the guidelines established by the National Research Council Guide for the Care and Use of Laboratory Animals.
Amphetamine-induced Hyperlocomotion: Male Harlan Sprague Dawley rats were habituated in Smart Open Field locomotor activity test chambers (Hamilton-Kinder, San Diego, CA) with 16×16 photo beams to automatically record locomotor activity. […] They were monitored for an additional 30 minutes and then injected subcutaneously with vehicle or 0.75 mg/kg amphetamine. Animals were then monitored for an additional 60 minutes, for a total of 120 minutes. Data were expressed as changes in ambulation defined as total number of beam breaks per 5 minute interval. Terminal brain and plasma samples were collected at the end of the study for pharmacokinetic analysis.
Data Analysis: Behavioral data were analyzed using a two-way ANOVA with main effects of treatment and time. Post hoc analysis was performed using a Dunnett's t-test with all treatment groups compared to the Vehicle/amphetamine group (VAMP) group using GraphPad Prism V.5.04 (GraphPad Software, San Diego, CA). Data were graphed using GraphPad Prism V.5.04 (GraphPad Software, San Diego, CA). A probability of p≤0.05 was taken as the level of statistical significance. In addition, the total number of beam breaks from the amphetamine administration (65 min) to the end of the study (120 min) was calculated and graphed. Percent Reversal was calculated as follows using Microsoft Excel: In each animal, total ambulation from t=65 to t=120 was summed. The mean of each sum was calculated in the VAMP group. Then, for each animal, Percent Reversal was calculated with the following formula: Percent Reversal=100−{[(total ambulation in each animal from t=65 to t=120)/(mean of each sum from t=65 to t=120 in VAMP group)]*100}. The mean Percent Reversal, as well as the standard error, was calculated for each dose group using GraphPad Prism V5.04.

Cc1nnc2sc(C(=O)NCc3ccc(S(=O)(=O)C(F)(F)F)cc3)c(N)c2c1C [VU0467154, reference compound]
percent reversal of amphetamine-induced hyperlocomotion: 56.2%
